Data reported in patent US11510903B2, “Synergic pharmaceutical composition of the active enantiomer (S)-ketorolac and Gabapentin for the treatment of neuropathic pain” (priority 2018, dated 2022).

Experiments:
[1] = Relative pharmacological potency of S-Ketorolac tromethamine versus Rac Ketorolac and AA; details: fold more potent
[2] = fold more active; cited from earlier work
[3] = tested on: rats with a chronic constriction injury (neuropathic pain); test: Von Frey test (mechanical hyperalgesia, 15 g filament) in rats with chronic constriction injury of the sciatic nerve; type: in vivo, rat (male Wistar); details: oral
Description: (§1) Said experimental model is based on the unilateral ligature of the sciatic nerve, which produces a chronic constriction injury, (CCI). This experimental model has shown itself to be sensitive to a number of drugs that are used clinically for the symptomatic treatment of neuropathic pain. […] The following observed behaviors are indicative of neuropathic pain: (1) autotomy, the animal injures itself in the denervated leg, (2) allodynia, withdrawal of the leg in the face of harmless stimulus that may be mechanical or cold (acetone), (3) hyperalgesia, violent withdrawal of the leg in the face of a moderate thermal or mechanical stimulus (Von Frey filaments 15 g). These aforementioned parameters have been widely used on pharmacology and the modulation of neuropathic pain. The tests that are most used to determine allodynia and hyperalgesia are: mechanical hyperalgesia with the von Frey filaments, the cold allodynia with acetone, thermal hyperalgesia with the plantar test and mechanical hyperalgesia with the pinprick test.
Male Wistar rats [Crl:(WI)fBR], with a body weight of 120-140 g at the start of the experimental phase, which weighed 160-180 g when the drugs were administered, were used for the particular study in this invention. The animals were kept in polycarbonate boxes under conditions of controlled temperature and light, with 12-hour cycles of light/dark and ad limitum water and food intake. All the experiments were carried out during the light phase. […]
The degree of hyperalgesia and allodynia in the rats submitted to the sciatic nerve surgery was determined by means of the Von Frey test and the acetone test. […]
The rats were placed on a metal screen in a box of transparent acrylic where they remained for at least 10 minutes to adapt before the test. The response was determined to a tactile stimulus applied to the plantar surface of the rear right leg using the 15 g von Frey filament. […]

[4] = tested on: rats with a chronic constriction injury (neuropathic pain); test: Acetone test (cold allodynia) in rats with chronic constriction injury of the sciatic nerve; type: in vivo, rat (male Wistar); details: oral
Description: as §1
Male Wistar rats [Crl:(WI)fBR], with a body weight of 120-140 g at the start of the experimental phase, which weighed 160-180 g when the drugs were administered, were used for the particular study in this invention. The animals were kept in polycarbonate boxes under conditions of controlled temperature and light, with 12-hour cycles of light/dark and ad limitum water and food intake. All the experiments were carried out during the light phase. The animals were used and managed following the guidelines established in the Ethical Guidelines for Pain Research of the International Association for the Study of Pain, and following a protocol approved by the Local Committee of Ethics for the Management of Laboratory Animals. The number of experimental animals was kept to a minimum (n=6 to 8), and, at the end of the experimental determinations, the animals were sacrificed using carbon dioxide.
The model for ICC neuropathic pain described by Bennett and Xie in 1988 was standardized. The rats were anesthetized and the sciatic nerve of the rear right leg was immediately dissected, by means of an incision, dissecting the biceps femoris to locate the part that is most proximal to the trifurcation of the sciatic nerve and apply four loose ligatures with silk thread. At the end of the surgery, the muscle was sutured with absorbable thread and the skin with silk thread. The surgery of the rats falsely operated on (Sham) was done in the same way, however, the sciatic nerve was not tied. This entire procedure was performed under aseptic conditions.
The degree of hyperalgesia and allodynia in the rats submitted to the sciatic nerve surgery was determined by means of the Von Frey test and the acetone test. These determinations were made a day before the surgery and, 7 days after the surgery a time-course of 180 minutes was done for both the control (saline) and for the compounds that were administered orally, in the study, both singly and combined, to evidence the hyperalgesia and allodynia that were present. Then a time-course was made of hyperalgesia and allodynia, but now in rats with chronic treatment (1 administration/12 hours), carrying out the determinations of both hyperalgesia and allodynia 30 minutes after the morning administration of the treatments being studied and in the following period: 0, 1, 3, 5 and 7 days (14 administrations in total).
At the end of the Von Frey test, the rats were left to rest on the metal screen and after a 5-10 min period, approximately 0.1 mL of acetone was applied to the plantar surface of the rear legs using a syringe with a flexible plastic tip, below the metal grating. The time (seconds) the animal remained with its leg removed from the surface was recorded with a chronometer for 60 s after exposure to the acetone. The response time of the rear right leg was measured and three replications were made at intervals of at least 2 minutes. […]

[5] = tested on: rats (lethal effects vs anti-allodynic effects); test: Therapeutic index (DL50/DE50) and safety margin study in rats; type: in vivo, rat; details: 24 h post-treatment
Protocol: As further support for this invention, the therapeutic index study was also performed on rats 24 h post-treatment, which is defined as the quotient of DL50 (24 h)/DE50. From said analysis and calculation, we get that the higher the result, the safer the drug, as this indicates the number of times it is necessary to increase DE50 for it to be turned into DL50 in the population being analyzed.
In other words, in a combination of said active ingredients, the CDR (for desired effects and lethal effects) was farther apart, therefore S-Ketorolac is safer in combination, as these variables are much farther apart. […] There is less distance between the CDR (desired effects and lethal effects) of the compound alone, than between the CDR (desired effects and toxic effects) of S-Ketorolac in combination with gabapentin.

[6] = cited from earlier work
[7] = 31.6 mg/kg gabapentin alone, 1.5 h after administration

For NC(CO)(CO)CO.O=C(c1ccccc1)c1ccc2n1CC[C@@H]2C(=O)O [S-Ketorolac tromethamine, S-(−)-5-Benzoyl-2,3-dihydro-1H-pyrrolizine-1-carboxylic acid of 2-amino-2-(hydroxymethyl)-1,3-propanediol (1:1)], the “pharmacological potency relative to AA” value [1] is given as 1037 times, the “pharmacological potency relative to Rac Ketorolac” value [1] is given as 3.3 times and the “activity relative to the R form” value [2] is given as 75 times.
With O=C(c1ccccc1)c1ccc2n1CC[C@@H]2C(=O)O [S-Ketorolac] the “maximal response for anti-hyperalgesic effects” value ([3]; 31.6 mg/kg S-Ketorolac alone, 1 h after administration) was 43.33±5.58%, the “dose up to which the anti-hyperalgesic effect increased with dose” value ([3]; doses 0.0316-100 mg/kg, no further increase above) was 3.16 mg/kg and the “anti-allodynic effect” value ([4]; 0.0316 mg/kg S-Ketorolac) was “almost no anti-allodynic effects”. The maximal anti-allodynic response ([4]; 0.316 mg/kg S-Ketorolac alone, 30 minutes after administration) was 44.00±7.71%, the “anti-allodynic effect” value ([4]; 1.0 mg/kg S-Ketorolac) was “maximum anti-allodynic effect” and the “therapeutic index, DL50 (24 h)/DE50” value [5] was 18,541.
In the case of NCC1(CC(=O)O)CCCCC1 [gabapentin], the “maximal response for anti-hyperalgesic effects” value [3, 7] is reported as 71.67±12.50%, the “anti-allodynic effect” value ([4]; 3.16 mg/kg gabapentin) is reported as “practically does not generate anti-allodynic effects” and the maximal anti-allodynic response [4, 7] is reported as 45.40±6.20%. The anti-allodynic effect ([4]; 31.6 mg/kg gabapentin alone, 3 h after administration) was 23.70±6.90%, the “anti-allodynic effect” value ([4]; 177.8 mg/kg gabapentin) was “maximum anti-allodynic effect” and the “time of maximal anti-allodynic response after administration (latency)” value ([4]; gabapentin 31.6 mg/kg alone or with 0.316 mg/kg S-Ketorolac) was 1.5 h. The bioavailability ([6]; 4,800 mg/day dose) was 27%, the “metabolism” value ([6]; eliminated by renal excretion) was “not appreciably metabolized” and the “binding to plasma proteins” value ([6]; in vivo) was 3%. The “concentration in the cephalospinal liquid as share of the concentration in plasma” value ([6]; patients with epilepsy) was “approximately 20%”.
